Patent publication US11214565B2, “Compound, compositions, and methods” (Denali Therapeutics Inc., priority 2015, dated 2022)

These compounds were tested against LRRK2 G2019S enzyme (Homo sapiens (Human), UniProt Q5S007, G2019S) (assay: LRRK2 G2019S TR-FRET biochemical kinase assay (LRRKtide substrate)). Settings: Table A-2; 5 nM LRRK2, 134 μM ATP, 60 minute reaction, 23° C.
How it was run: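 5 nM LRRK2 G2019S preincubated 20 min with LRRKtide and compound (3.162-fold dilution series) in Tris pH 7.5, MgCl2, EGTA, Brij-35, DTT, then reacted 60 min at 23 °C with 134 μM ATP. EDTA-stopped; pLRRKtide antibody detection, TR-FRET read at 340 nm excitation, 520/490–495 nm emission.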

Chain of LRRK2 G2019S enzyme (Q5S007 whole entry G2019S): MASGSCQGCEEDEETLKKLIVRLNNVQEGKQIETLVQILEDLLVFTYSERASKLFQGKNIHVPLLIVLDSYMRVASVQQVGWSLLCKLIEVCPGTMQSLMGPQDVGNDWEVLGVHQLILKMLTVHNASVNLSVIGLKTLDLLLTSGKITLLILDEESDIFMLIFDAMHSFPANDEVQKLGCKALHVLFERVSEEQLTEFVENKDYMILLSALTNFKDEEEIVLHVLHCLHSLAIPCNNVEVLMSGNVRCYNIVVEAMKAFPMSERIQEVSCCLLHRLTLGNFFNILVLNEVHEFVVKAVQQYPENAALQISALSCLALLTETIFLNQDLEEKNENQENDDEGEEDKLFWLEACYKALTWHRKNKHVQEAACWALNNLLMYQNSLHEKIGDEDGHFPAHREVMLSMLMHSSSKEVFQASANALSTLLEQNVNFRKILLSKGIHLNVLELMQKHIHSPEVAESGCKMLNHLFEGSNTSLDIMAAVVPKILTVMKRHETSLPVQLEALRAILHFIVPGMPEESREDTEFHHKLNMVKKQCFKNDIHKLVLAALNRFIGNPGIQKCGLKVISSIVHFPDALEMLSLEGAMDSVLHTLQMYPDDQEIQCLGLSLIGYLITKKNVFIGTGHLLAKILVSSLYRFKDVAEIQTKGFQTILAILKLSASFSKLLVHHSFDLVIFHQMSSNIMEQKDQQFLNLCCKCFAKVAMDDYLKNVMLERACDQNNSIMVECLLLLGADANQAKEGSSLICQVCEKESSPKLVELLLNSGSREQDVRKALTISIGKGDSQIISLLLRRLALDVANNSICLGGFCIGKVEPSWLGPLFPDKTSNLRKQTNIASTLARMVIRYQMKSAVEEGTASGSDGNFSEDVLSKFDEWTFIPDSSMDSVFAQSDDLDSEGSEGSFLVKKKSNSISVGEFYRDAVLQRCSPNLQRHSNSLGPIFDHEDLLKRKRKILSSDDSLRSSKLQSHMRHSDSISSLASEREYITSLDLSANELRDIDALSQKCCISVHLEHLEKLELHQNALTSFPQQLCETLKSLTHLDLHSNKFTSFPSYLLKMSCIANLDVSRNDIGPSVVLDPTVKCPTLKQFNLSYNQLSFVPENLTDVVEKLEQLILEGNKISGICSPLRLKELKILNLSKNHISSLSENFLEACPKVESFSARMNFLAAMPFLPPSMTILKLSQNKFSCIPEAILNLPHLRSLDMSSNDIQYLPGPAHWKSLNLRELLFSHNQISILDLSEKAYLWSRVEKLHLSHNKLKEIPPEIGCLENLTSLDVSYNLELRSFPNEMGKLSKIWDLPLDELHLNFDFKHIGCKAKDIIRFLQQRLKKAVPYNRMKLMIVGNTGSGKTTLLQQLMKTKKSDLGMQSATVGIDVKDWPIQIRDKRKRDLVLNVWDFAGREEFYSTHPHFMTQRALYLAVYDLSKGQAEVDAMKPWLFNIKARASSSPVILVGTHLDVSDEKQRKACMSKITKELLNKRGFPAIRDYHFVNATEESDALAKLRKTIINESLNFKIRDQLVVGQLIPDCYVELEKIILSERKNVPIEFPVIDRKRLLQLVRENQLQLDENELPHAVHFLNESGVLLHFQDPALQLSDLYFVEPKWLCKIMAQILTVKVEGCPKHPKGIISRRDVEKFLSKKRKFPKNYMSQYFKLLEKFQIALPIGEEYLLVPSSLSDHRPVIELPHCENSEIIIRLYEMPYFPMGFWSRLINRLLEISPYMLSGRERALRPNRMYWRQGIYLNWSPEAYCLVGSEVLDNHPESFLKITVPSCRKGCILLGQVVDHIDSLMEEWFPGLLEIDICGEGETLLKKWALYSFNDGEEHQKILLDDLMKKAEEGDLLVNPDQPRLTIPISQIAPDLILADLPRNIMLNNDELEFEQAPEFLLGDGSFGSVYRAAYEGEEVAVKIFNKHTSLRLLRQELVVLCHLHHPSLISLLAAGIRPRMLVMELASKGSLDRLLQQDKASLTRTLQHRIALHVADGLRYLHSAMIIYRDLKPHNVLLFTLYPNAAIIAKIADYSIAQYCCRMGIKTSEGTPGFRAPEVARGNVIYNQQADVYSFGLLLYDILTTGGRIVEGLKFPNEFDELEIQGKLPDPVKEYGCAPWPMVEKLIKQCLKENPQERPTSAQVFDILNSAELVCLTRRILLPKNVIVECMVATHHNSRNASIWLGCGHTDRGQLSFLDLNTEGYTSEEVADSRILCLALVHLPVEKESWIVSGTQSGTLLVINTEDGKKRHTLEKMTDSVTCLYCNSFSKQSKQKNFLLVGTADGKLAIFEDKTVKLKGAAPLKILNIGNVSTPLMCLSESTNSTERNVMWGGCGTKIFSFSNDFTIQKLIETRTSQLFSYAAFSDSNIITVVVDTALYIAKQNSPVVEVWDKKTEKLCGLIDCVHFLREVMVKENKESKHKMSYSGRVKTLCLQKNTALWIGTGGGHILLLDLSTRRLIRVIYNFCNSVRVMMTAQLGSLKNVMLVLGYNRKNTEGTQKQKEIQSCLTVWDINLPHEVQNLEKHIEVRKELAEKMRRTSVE

| IC50 | Structure (SMILES) |
| --- | --- |
| 30 to 60 nM | Cc1nnc(C(C)(C)n2cc(Nc3ncc(C(F)(F)F)c(C4CC4)n3)c(C)n2)o1 [Compound A-74, 4-cyclopropyl-N-(3-methyl-1-(2-(5-methyl-1,3,4-oxadiazol-2-yl)propan-2-yl)-1H-pyrazol-4-yl)-5-(trifluoromethyl)pyrimidin-2-amine] |
| < 30 nM | Cc1nn(C(F)(F)c2ncn(C)n2)cc1Nc1ncc(C(F)(F)F)c(C2CC2)n1 [Compound A-75, 4-cyclopropyl-N-[1-[difluoro(1-methyl-1H-1,2,4-triazol-3-yl)methyl]-3-methyl-pyrazol-4-yl]-5-(trifluoromethyl)pyrimidin-2-amine] |
| > 60 nM | Cc1nn(C(F)(F)c2ncnn2C)cc1Nc1ncc(C(F)(F)F)c(C2CC2)n1 [Compound A-76, 4-cyclopropyl-N-[1-[difluoro-(2-methyl-1,2,4-triazol-3-yl)methyl]-3-methyl-pyrazol-4-yl]-5-(trifluoromethyl)pyrimidin-2-amine] |
| < 30 nM | Cc1nn(C(F)(F)c2nc[nH]n2)cc1Nc1ncc(C(F)(F)F)c(C2CC2)n1 [Compound A-77, 4-cyclopropyl-N-(1-(difluoro(1H-1,2,4-triazol-3-yl)methyl)-3-methyl-1H-pyrazol-4-yl)-5-(trifluoromethyl)pyrimidin-2-amine] |
| < 30 nM | Cc1c(Nc2ncc(C(F)(F)F)c(C3CC3)n2)cnn1[C@H]1C[C@H](c2ncnn2C)C1 [Compound A-80, 4-cyclopropyl-N-(5-methyl-1-((1r,3r)-3-(1-methyl-1H-1,2,4-triazol-5-yl)cyclobutyl)-1H-pyrazol-4-yl)-5-(trifluoromethyl)pyrimidin-2-amine] |
| < 30 nM | Cc1nn([C@H]2C[C@H](c3ncnn3C)C2)cc1Nc1ncc(C(F)(F)F)c(C2CC2)n1 [Compound A-81, 4-cyclopropyl-N-(3-methyl-1-((1r,3r)-3-(1-methyl-1H-1,2,4-triazol-5-yl)cyclobutyl)-1H-pyrazol-4-yl)-5-(trifluoromethyl)pyrimidin-2-amine] |
| < 30 nM | Cc1nn(C(F)(F)C(N)=O)cc1Nc1ncc(C(F)(F)F)c(C2CC2)n1 [Compound A-87] |
| < 30 nM | Cc1c(Nc2ncc(C(F)(F)F)c(C3CC3)n2)cnn1C1(C)CCNC1=O (stereo not shown) [Compound A-93] |

Same assay, conditions: Table B-2; 5 nM LRRK2, 134 μM ATP, 60 minute reaction, 23° C.

| IC50 | Structure (SMILES) |
| --- | --- |
| 1 to 2 nM | CNc1nc(Nc2cnn(C)c2C)nc2[nH]cc(Cl)c12 [Compound B-1, 5-chloro-N^2-(1,5-dimethylpyrazol-4-yl)-N4-methyl-7H-pyrrolo[2,3-d]pyrimidine-2,4-diamine] |
| ≤ 1 nM | CCNc1nc(Nc2cn(C(C)(C)C#N)nc2C)nc2[nH]cc(Cl)c12 [Compound B-2, 2-[4-[[5-chloro-4-(ethylamino)-7H-pyrrolo[2,3-d]pyrimidin-2-yl]amino]-3-methyl-pyrazol-1-yl]-2-methyl-propanenitrile] |
| ≤ 1 nM | CCOc1nc(Nc2cn(C(C)(C)C#N)nc2C)nc2[nH]cc(Cl)c12 [Compound B-3, 2-[4-[[5-chloro-4-ethoxy-7H-pyrrolo[2,3-d]pyrimidin-2-yl]amino]-3-methyl-pyrazol-1-yl]-2-methyl-propanenitrile] |
| 2 to 20 nM | CNc1nc(Nc2cn(C)nc2C)nc2[nH]cc(Cl)c12 [Compound B-4, 5-chloro-N^2-(1,3-dimethyl-1H-pyrazol-4-yl)-N^4-methyl-7H-pyrrolo[2,3-d]pyrimidine-2,4-diamine] |
| 1 to 2 nM | COc1nc(Nc2cn(C(C)(C)C#N)nc2C)nc2[nH]cc(Cl)c12 [Compound B-5, 2-[4-[(5-chloro-4-methoxy-7H-pyrrolo[2,3-d]pyrimidin-2-yl)amino]-3-methyl-pyrazol-1-yl]-2-methyl-propanenitrile] |
| ≤ 1 nM | CNc1nc(Nc2cn(C(C)(C)C#N)nc2C)nc2[nH]cc(Cl)c12 [Compound B-6, 2-[4-[[5-Chloro-4-(methylamino)-7H-pyrrolo[2,3-d]pyrimidin-2-yl]amino]-3-methyl-pyrazol-1-yl]-2-methyl-propanenitrile] |
| 2 to 20 nM | COc1nc(Nc2cn(C(C)(C)C#N)nc2C)nc2[nH]cnc12 [Compound B-7, 2-(4-((6-methoxy-9H-purin-2-yl)amino)-3-methyl-1H-pyrazol-1-yl)-2-methylpropanenitrile] |
| 1 to 2 nM | COc1nc(Nc2cnn(C)c2C)nc2[nH]cc(Cl)c12 [Compound B-8, 5-chloro-N-(1,5-dimethylpyrazol-4-yl)-4-methoxy-7H-pyrrolo[2,3-d]pyrimidin-2-amine] |
| 2 to 20 nM | COc1nc(Nc2cn(C)nc2C)nc2[nH]cc(Cl)c12 [Compound B-9, 5-chloro-N-(1,3-dimethylpyrazol-4-yl)-4-methoxy-7H-pyrrolo[2,3-d]pyrimidin-2-amine] |
| 1 to 2 nM | CNc1nc(Nc2cn(C(C)(C)C#N)nc2C)nc2[nH]cc(F)c12 [Compound B-10, 2-(4-((5-fluoro-4-(methylamino)-7H-pyrrolo[2,3-d]pyrimidin-2-yl)amino)-3-methyl-1H-pyrazol-1-yl)-2-methylpropanenitrile] |
| 1 to 2 nM | COc1nc(Nc2cn(C(C)(C)C#N)nc2C)nc2[nH]cc(F)c12 [Compound B-11, 2-[4-[(5-fluoro-4-methoxy-7H-pyrrolo[2,3-d]pyrimidin-2-yl)amino]-3-methyl-pyrazol-1-yl]-2-methyl-propanenitrile] |
| 2 to 20 nM | CCOc1nc(Nc2cn(C(C)(C)C#N)nc2C)nc2[nH]cnc12 [Compound B-12, 2-[4-[(6-ethoxy-9H-purin-2-yl)amino]-3-methyl-pyrazol-1-yl]-2-methyl-propanenitrile] |
| 2 to 20 nM | COc1nc(Nc2cn(C(C)(C)C#N)nc2C)nc2[nH]cc(C3CC3)c12 [Compound B-13, 2-[4-[(5-cyclopropyl-4-methoxy-7H-pyrrolo[2,3-d]pyrimidin-2-yl)amino]-3-methyl-pyrazol-1-yl]-2-methyl-propanenitrile] |
| 2 to 20 nM | COc1nc(Nc2cn(C(C)(C)C#N)nc2C)nc2[nH]cc(C(F)(F)F)c12 [Compound B-14, 2-(4-((4-methoxy-5-(trifluoromethyl)-7H-pyrrolo[2,3-d]pyrimidin-2-yl)amino)-3-methyl-1H-pyrazol-1-yl)-2-methylpropanenitrile] |

Same assay, conditions: Table C-2; 5 nM LRRK2, 134 μM ATP, 60 minute reaction, 23° C.

| IC50 | Structure (SMILES) |
| --- | --- |
| < 50 nM | Cc1nn(C(CF)CF)cc1Nc1nc(C2CC2)c2nc[nH]c2n1 [Compound C-1, 6-cyclopropyl-N-[1-[2-fluoro-1-(fluoromethyl)ethyl]-3-methyl-pyrazol-4-yl]-9H-purin-2-amine] |
| < 50 nM | Cc1c(Nc2nc(C3CC3)c3nc[nH]c3n2)cnn1C(CF)CF [Compound C-2, 6-cyclopropyl-N-(1-(1,3-difluoropropan-2-yl)-5-methyl-1H-pyrazol-4-yl)-9H-purin-2-amine] |
| < 50 nM | Cc1c(Nc2nc(C3CC3)c3nc[nH]c3n2)cnn1C(F)F [Compound C-4, 6-cyclopropyl-N-(1-(difluoromethyl)-5-methyl-1H-pyrazol-4-yl)-9H-purin-2-amine] |
| < 50 nM | Cc1c(Nc2nc(C3CC3)c3nc[nH]c3n2)cnn1C [Compound C-5, 6-cyclopropyl-N-(1,5-dimethylpyrazol-4-yl)-9H-purin-2-amine] |
| < 50 nM | Cc1nn(C)cc1Nc1nc(C2CC2)c2nc[nH]c2n1 [Compound C-6, 6-cyclopropyl-N-(1,3-dimethylpyrazol-4-yl)-9H-purin-2-amine] |
| < 50 nM | Cc1c(Nc2nc(C3CC3)c3nc[nH]c3n2)cnn1CC1CC1 [Compound C-7, 6-cyclopropyl-N-(1-(cyclopropylmethyl)-5-methyl-1H-pyrazol-4-yl)-9H-purin-2-amine] |
